# Columns and labels:
# [1] = target: Bcr/Abl fusion protein (Homo sapiens) (UniProt P00519+P11274); conditions: BaF3
# Description: Inhibition of BCR/ABL p210 (unknown origin) expressed in mouse BA/F3 cells assessed as growth inhibition after 72 hrs by CellTiter-Glo or CCK-8 assay
# [2] = target: Transcription factor ETV6/Tyrosine-protein kinase ABL1 (Homo sapiens) (UniProt P00519+P41212); conditions: BaF3
# Description: Inhibition of Tel-ABL (unknown origin) expressed in mouse BA/F3 cells assessed as cell growth inhibition after 72 hrs by CellTiter-Glo or CCK-8 assay
# [3] = test system: K562; assay: Antiproliferative activity against human K562 cells assessed as cell viability after 72 hrs by CellTiter-Glo or CCK-8 assay; type: functional; conditions: K562, 72 h
# [4] = Antiproliferative activity against mouse BA/F3 cells assessed as cell viability after 72 hrs by CellTiter-Glo or CCK-8 assay; type: cell-based, BaF3
# Sequence of Transcription factor ETV6/Tyrosine-protein kinase ABL1 (Homo sapiens) (P00519 whole entry, looked up): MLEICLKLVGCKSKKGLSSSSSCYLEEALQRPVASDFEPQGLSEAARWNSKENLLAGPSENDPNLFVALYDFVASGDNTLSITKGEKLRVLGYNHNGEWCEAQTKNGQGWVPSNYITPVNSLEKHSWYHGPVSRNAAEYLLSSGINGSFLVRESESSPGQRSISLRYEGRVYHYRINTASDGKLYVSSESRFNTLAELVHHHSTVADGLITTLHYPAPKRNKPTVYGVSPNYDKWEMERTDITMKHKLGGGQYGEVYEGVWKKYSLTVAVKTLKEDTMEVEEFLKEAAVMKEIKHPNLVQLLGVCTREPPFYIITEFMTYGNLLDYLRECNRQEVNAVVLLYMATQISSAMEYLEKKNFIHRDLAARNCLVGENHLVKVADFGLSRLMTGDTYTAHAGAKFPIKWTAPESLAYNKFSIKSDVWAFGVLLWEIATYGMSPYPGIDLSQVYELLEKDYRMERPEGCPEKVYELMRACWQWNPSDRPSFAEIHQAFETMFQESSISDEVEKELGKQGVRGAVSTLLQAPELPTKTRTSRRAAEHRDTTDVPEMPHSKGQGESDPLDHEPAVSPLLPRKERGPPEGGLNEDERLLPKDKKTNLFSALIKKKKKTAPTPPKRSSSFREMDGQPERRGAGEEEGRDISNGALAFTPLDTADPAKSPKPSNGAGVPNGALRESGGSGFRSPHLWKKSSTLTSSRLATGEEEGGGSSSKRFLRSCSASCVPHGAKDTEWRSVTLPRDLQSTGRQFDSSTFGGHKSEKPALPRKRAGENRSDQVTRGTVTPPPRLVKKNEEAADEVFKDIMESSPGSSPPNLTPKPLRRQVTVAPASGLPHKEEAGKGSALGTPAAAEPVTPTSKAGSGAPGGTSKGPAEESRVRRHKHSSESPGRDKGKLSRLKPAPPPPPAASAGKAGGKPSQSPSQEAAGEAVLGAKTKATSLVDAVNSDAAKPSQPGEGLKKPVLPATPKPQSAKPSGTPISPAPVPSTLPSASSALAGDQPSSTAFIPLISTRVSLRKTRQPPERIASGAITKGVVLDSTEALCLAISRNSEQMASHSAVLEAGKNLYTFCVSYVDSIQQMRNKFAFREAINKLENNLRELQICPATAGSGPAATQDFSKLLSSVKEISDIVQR
# Sequence of Transcription factor ETV6/Tyrosine-protein kinase ABL1 (Homo sapiens) (P41212 whole entry, looked up): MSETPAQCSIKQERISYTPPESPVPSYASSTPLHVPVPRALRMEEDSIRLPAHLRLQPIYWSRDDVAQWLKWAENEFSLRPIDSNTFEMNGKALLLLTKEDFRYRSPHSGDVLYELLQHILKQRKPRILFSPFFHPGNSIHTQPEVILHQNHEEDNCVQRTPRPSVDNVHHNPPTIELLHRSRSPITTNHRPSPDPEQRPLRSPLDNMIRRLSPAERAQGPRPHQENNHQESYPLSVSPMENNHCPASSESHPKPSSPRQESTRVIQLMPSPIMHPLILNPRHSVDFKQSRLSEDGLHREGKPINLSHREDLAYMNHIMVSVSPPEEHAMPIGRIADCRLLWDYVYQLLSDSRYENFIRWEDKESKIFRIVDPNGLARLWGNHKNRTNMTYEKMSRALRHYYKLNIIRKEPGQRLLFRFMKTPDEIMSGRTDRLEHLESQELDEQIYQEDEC
# Sequence of Bcr/Abl fusion protein (Homo sapiens) (P00519 whole entry, looked up, the tested form may be a part): as the sequence (P00519 whole entry, looked up) above
# Sequence of Bcr/Abl fusion protein (Homo sapiens) (P11274 whole entry, looked up, the tested form may be a part): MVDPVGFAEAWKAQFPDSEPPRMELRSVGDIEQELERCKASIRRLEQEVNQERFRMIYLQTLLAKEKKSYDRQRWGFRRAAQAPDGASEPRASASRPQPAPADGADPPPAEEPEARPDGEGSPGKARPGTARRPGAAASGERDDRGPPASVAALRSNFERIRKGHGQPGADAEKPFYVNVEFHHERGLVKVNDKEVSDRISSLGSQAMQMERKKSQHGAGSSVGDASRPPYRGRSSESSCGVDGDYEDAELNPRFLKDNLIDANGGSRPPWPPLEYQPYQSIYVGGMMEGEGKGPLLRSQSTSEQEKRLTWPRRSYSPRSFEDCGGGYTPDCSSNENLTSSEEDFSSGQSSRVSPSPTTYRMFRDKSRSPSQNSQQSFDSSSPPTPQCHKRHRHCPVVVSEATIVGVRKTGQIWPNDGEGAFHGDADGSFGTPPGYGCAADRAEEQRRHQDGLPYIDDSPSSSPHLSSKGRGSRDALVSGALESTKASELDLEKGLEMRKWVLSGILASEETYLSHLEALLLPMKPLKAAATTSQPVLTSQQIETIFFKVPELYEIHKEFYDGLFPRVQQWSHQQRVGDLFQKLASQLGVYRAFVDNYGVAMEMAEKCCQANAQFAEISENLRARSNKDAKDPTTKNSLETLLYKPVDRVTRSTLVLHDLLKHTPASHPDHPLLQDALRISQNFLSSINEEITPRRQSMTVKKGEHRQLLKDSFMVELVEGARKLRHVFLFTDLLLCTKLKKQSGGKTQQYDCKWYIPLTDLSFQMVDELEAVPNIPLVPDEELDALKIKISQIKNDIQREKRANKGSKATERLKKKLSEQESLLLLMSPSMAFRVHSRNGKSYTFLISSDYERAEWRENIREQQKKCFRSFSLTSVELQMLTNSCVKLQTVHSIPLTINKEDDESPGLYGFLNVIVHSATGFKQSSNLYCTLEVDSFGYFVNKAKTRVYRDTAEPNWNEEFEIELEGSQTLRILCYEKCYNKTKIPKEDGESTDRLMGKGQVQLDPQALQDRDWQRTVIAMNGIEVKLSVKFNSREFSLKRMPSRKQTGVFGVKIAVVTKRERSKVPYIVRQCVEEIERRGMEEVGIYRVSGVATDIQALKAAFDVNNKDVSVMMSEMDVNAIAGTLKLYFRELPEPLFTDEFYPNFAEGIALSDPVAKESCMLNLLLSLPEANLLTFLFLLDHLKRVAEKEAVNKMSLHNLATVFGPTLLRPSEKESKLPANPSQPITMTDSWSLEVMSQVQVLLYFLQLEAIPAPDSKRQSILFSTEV
GI50 [1] [nM],GI50 [2] [nM],GI50 [3] [nM],Compound,GI50 at 72 h [4] [nM]
670,445,250,CNc1nc(Nc2ccc(C)c(N)c2)ncc1C(=O)Nc1cc(NC(=O)c2cc(OC)c(OC)c(OC)c2)ccc1C,> 10000
311,628,230,CNc1nc(Nc2ccc(C)c(N)c2)ncc1C(=O)Nc1cc(NC(=O)c2cc(OC)cc(OC)c2)ccc1C,> 10000
2100,1300,610,CNc1nc(Nc2ccc(C)c(N)c2)ncc1C(=O)Nc1cc(NC(=O)c2ccc(OC)cc2)ccc1C,> 10000
214,1290,499,CNc1nc(Nc2ccc(C)c([N+](=O)[O-])c2)ncc1C(=O)Nc1cc(NC(=O)c2ccc3c(c2)OCO3)ccc1C,> 10000
1850,1030,1210,Cc1ccc(Nc2ncc(C(=O)Nc3cc(NC(=O)c4cccc(C(F)(F)F)c4)ccc3C)c(N(C)C)n2)cc1N,> 10000
294,2030,1070,CNc1nc(Nc2ccc(C)c([N+](=O)[O-])c2)ncc1C(=O)Nc1cc(NC(=O)c2cc(OC)cc(OC)c2)ccc1C,> 10000
32,15,13,Cc1ccc(Oc2ncc3c(n2)N(C)C(=O)N(c2cc(NC(=O)c4cccc(C(F)(F)F)c4)ccc2C)C3)cc1N,> 10000
> 10000,> 10000,> 10000,Cc1ccc(NC(=O)c2cccc(C(F)(F)F)c2)cc1NC(=O)c1cnc(Nc2ccc(C)c([N+](=O)[O-])c2)nc1N(C)C,> 10000
> 10000,> 10000,> 10000,CNc1nc(Nc2ccc(C)c([N+](=O)[O-])c2)ncc1C(=O)Nc1cc(NC(=O)c2ccccc2OC)ccc1C,> 10000
3600,2900,1530,CNc1nc(Nc2ccc(C)c([N+](=O)[O-])c2)ncc1C(=O)Nc1cc(NC(=O)c2ccc(OC)cc2)ccc1C,> 10000
55,105,18,Cc1ccc(NC(=O)c2cccc(C(F)(F)F)c2)cc1N1Cc2cnc(NC3CCN(C(=O)OC(C)(C)C)CC3)nc2N(C)C1=O,7520
36,87,52,CNc1nc(Nc2ccc(C)c([N+](=O)[O-])c2)ncc1C(=O)Nc1cc(NC(=O)c2cccc(C(F)(F)F)c2)ccc1C,> 10000
4100,4240,320,CNc1nc(Nc2ccc(C)c([N+](=O)[O-])c2)ncc1C(=O)Nc1cc(NC(=O)c2ccc3c(c2)OCCO3)ccc1C,> 10000

# More lines, now with the values behind:
Compound,GI50 [1] [nM],GI50 [2] [nM],GI50 [3] [nM],GI50 at 72 h [4] [nM]
CNc1nc(Nc2ccc(C)c(N)c2)ncc1C(=O)Nc1cc(NC(=O)c2ccc3c(c2)OCO3)ccc1C,124,570,353,> 10000
Cc1ccc(NC(=O)c2cccc(C(F)(F)F)c2)cc1N1Cc2cnc(NCCCN3CCOCC3)nc2N(C)C1=O,15,9,7,5600
Cc1ccc(NC(=O)c2cccc(C(F)(F)F)c2)cc1N1Cc2cnc(OC3CCNCC3)nc2N(C)C1=O,2700,2040,220,> 10000
Cc1ccc(Nc2ncc3c(n2)N(C)C(=O)N(c2cc(NC(=O)c4cc(C(C)(C)C)cc(C(C)(C)C)c4)ccc2C)C3)cc1N,120,96,1300,> 10000
Cc1ccc(Nc2ncc3c(n2)N(C)C(=O)N(c2cc(NC(=O)c4cccc(-c5ccccc5)c4)ccc2C)C3)cc1N,46,39,23,> 10000
CNc1nc(Nc2ccc(C)c(N)c2)ncc1C(=O)Nc1cc(NC(=O)c2ccc(OC)c(OC)c2)ccc1C,1600,1100,380,> 10000
Cc1ccc(NC(=O)c2cccc(C(F)(F)F)c2)cc1N1Cc2cnc(OC3CCN(C(=O)OC(C)(C)C)CC3)nc2N(C)C1=O,132,288,29,> 10000
Cc1ccc(Nc2ncc3c(n2)N(C)C(=O)N(c2cc(NC(=O)c4cccc(C(F)(F)F)c4)ccc2C)C3)cc1,19,50,18,8000
CNc1nc(Nc2ccc(C)c(N)c2)ncc1C(=O)Nc1cc(NC(=O)c2cccc(OC)c2)ccc1C,570,524,330,> 10000
Cc1ccc(NC(=O)c2cccc(C(F)(F)F)c2)cc1N1Cc2cnc(O[C@H]3CCN(C(=O)OC(C)(C)C)C3)nc2N(C)C1=O,126,292,30,8380
Cc1ccc(Nc2ncc3c(n2)N(C)C(=O)N(c2cc(NC(=O)c4cccc(C(F)(F)F)c4)ccc2C)C3)cn1,–,–,9,120
Cc1ccc(NC(=O)c2cccc(C(F)(F)F)c2)cc1N1Cc2cnc(O[C@H]3CCNC3)nc2N(C)C1=O,1260,1380,450,> 10000
Cc1ccc(NC(=O)c2cccc(C(F)(F)F)c2)cc1N1Cc2cnc(NC3CCNCC3)nc2N(C)C1=O,150,100,19,3000
Cc1ccc(NC(=O)c2cccc(C(F)(F)F)c2)cc1N1Cc2cnc(Nc3ccc(C)c(C(F)(F)F)c3)nc2N(C)C1=O,67,185,29,> 10000
Cc1ccc(Nc2ncc3c(n2)N(C)C(=O)N(c2cc(NC(=O)c4cccc(C(F)(F)F)c4)ccc2C)C3)cc1C,66,61,17,3760
Cc1ccc(Nc2ncc(C(=O)Nc3cc(NC(=O)c4cccc(C(F)(F)F)c4)ccc3C)cn2)cc1N,470,590,330,> 10000
Cc1cc(C)cc(C(=O)Nc2ccc(C)c(N3Cc4cnc(Nc5ccc(C)c(N)c5)nc4N(C)C3=O)c2)c1,42,31,26,> 10000
Cc1cccc(C(=O)Nc2ccc(C)c(N3Cc4cnc(Nc5ccc(C)c(N)c5)nc4N(C)C3=O)c2)c1,14,6,68.8,> 10000
CNc1nc(Nc2ccc(C)c([N+](=O)[O-])c2)ncc1C(=O)Nc1cc(NC(=O)c2cccc(OC)c2)ccc1C,1100,983,480,6310
Cc1ccc(Nc2ncc3c(n2)N(C)C(=O)N(c2cc(NC(=O)c4cccc(C(F)(F)F)c4)ccc2C)C3)cc1N,5,5,3,440
Cc1ccc(NC(=O)c2cccc(C(F)(F)F)c2)cc1NC(=O)c1cnc(Nc2ccc(C)c([N+](=O)[O-])c2)nc1,1200,1400,380,8700
CNc1nc(Nc2ccc(C)c([N+](=O)[O-])c2)ncc1C(=O)Nc1cc(NC(=O)c2ccc(OC)c(OC)c2)ccc1C,1600,1400,680,7300
CNc1nc(Nc2ccc(C)c([N+](=O)[O-])c2)ncc1C(=O)Nc1cc(NC(=O)c2cc(OC)c(OC)c(OC)c2)ccc1C,1500,931,430,> 10000
CNc1cc(Nc2ncc3c(n2)N(C)C(=O)N(c2cc(NC(=O)c4cccc(C(F)(F)F)c4)ccc2C)C3)ccc1C,14,20,19,> 10000
CNc1nc(Nc2ccc(C)c(N)c2)ncc1C(=O)Nc1cc(NC(=O)c2ccccc2OC)ccc1C,6400,5200,1980,> 10000
CNc1nc(Nc2ccc(C)c(N)c2)ncc1C(=O)Nc1cc(NC(=O)c2ccc3c(c2)OCCO3)ccc1C,1100,787,320,> 10000
Cc1ccc(Nc2ncc3c(n2)N(C)C(=O)N(c2cc(NC(=O)c4cccc(C(F)(F)F)c4)ccc2C)C3)cc1N(C)C,30,42,28,> 10000

# — ChEMBL document CHEMBL3779840, “Discovery of 2-((3-Amino-4-methylphenyl)amino)-N-(2-methyl-5-(3-(trifluoromethyl)benzamido)phenyl)-4-(methylamino)pyrimidine-5-carboxamide (CHMFL-ABL-053) as a Potent, Selective, and Orally Available BCR-ABL/SRC/p38 Kinase Inhibitor for Chronic Myeloid Leukemia” (J Med Chem, 2016)
